Tested on: 898857-211-R-J1-PDC complex spheroids, growth % test/control
Assay: Anticancer human tumor 898857-211-R-J1-PDC patient-derived melanoma cell line growth inhibition [RAS]
Details: for IC50: curve of first compound; for viability, T/C: stronger effect = lower value
Method in brief: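 Multi-cell-type spheroids: tumor cells plus HUVEC endothelial cells and mesenchymal stem cells. RAS-pathway inhibitors were combined with targeted agents, each dosed in half-log steps down from clinical Cmax, or from 10 microM when Cmax was unknown.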

[1] = second compound 0.0316 µM, first compound 0.0316 µM
[2] = second compound 0.0316 µM, first compound 0.1 µM
[3] = second compound 0.0316 µM, first compound 0.316 µM
[4] = second compound 0.0316 µM, first compound 1 µM
[5] = second compound 0.1 µM, first compound 0.0316 µM
[6] = second compound 0.1 µM, first compound 0.1 µM
[7] = second compound 0.1 µM, first compound 0.316 µM
[8] = second compound 0.1 µM, first compound 1 µM
[9] = second compound 0.316 µM, first compound 0.0316 µM
[10] = second compound 0.316 µM, first compound 0.1 µM
[11] = second compound 0.316 µM, first compound 0.316 µM
[12] = second compound 0.316 µM, first compound 1 µM
[13] = second compound 1 µM, first compound 0.0316 µM
[14] = second compound 1 µM, first compound 0.1 µM
[15] = second compound 1 µM, first compound 0.316 µM
[16] = second compound 1 µM, first compound 1 µM
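Further: spheroids exposed to compound for seven days before readout.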
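Wherever viability, T/C is given: 100% = DMSO vehicle control wells.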

**Q.** `NC1c2ccccc2OC12CCN(c1cnc3c(N4CCCc5ncccc54)n[nH]c3n1)CC2` (centres undefined) + C=CC(=O)N1CCN(c2nc(OCC3CCCN3C)nc3c(F)c(-c4nc(N)cc(C)c4C(F)(F)F)c(Cl)cc23)C(C)C1 was tested. Which IC50 (second compound 0.00316 µM) did it give?
**A.** > 10000 nM

**Q.** And the IC50 (second compound 0.01 µM)?
**A.** > 10000 nM

**Q.** And the IC50 (second compound 0.0316 µM)?
**A.** > 10000 nM

**Q.** What about the IC50 (second compound 0.1 µM) of the same compound?
**A.** > 10000 nM

**Q.** What about the IC50 (second compound 0.316 µM) of the same compound?
**A.** > 10000 nM

**Q.** What about the IC50 (second compound 1 µM) of the same compound?
**A.** > 10000 nM

**Q.** What about the viability, T/C (second compound 0.00316 µM, first compound 0.0316 µM) of the same compound?
**A.** 92.5%

**Q.** What about the viability, T/C (second compound 0.00316 µM, first compound 0.1 µM) of the same compound?
**A.** 98%

**Q.** And the viability, T/C (second compound 0.00316 µM, first compound 0.316 µM)?
**A.** 92.8%

**Q.** And the viability, T/C (second compound 0.00316 µM, first compound 1 µM)?
**A.** 89.2%

**Q.** And the viability, T/C (second compound 0.00316 µM, first compound 3.16 µM)?
**A.** 79.9%

**Q.** And the viability, T/C (second compound 0.00316 µM, first compound 10 µM)?
**A.** 75%

**Q.** And the viability, T/C (second compound 0.01 µM, first compound 0.0316 µM)?
**A.** 94.9%

**Q.** What about the viability, T/C (second compound 0.01 µM, first compound 0.1 µM) of the same compound?
**A.** 85.9%

**Q.** What about the viability, T/C (second compound 0.01 µM, first compound 0.316 µM) of the same compound?
**A.** 87.2%

**Q.** What about the viability, T/C (second compound 0.01 µM, first compound 1 µM) of the same compound?
**A.** 83.3%

**Q.** What about the viability, T/C (second compound 0.01 µM, first compound 3.16 µM) of the same compound?
**A.** 81.6%

**Q.** And the viability, T/C (second compound 0.01 µM, first compound 10 µM)?
**A.** 78.6%

**Q.** And the viability, T/C [1]?
**A.** 88.3%

**Q.** What about the viability, T/C [2] of the same compound?
**A.** 85.8%

**Q.** What about the viability, T/C [3] of the same compound?
**A.** 88.2%

**Q.** What about the viability, T/C [4] of the same compound?
**A.** 86.2%

**Q.** What about the viability, T/C (second compound 0.0316 µM, first compound 3.16 µM) of the same compound?
**A.** 87.3%

**Q.** What about the viability, T/C (second compound 0.0316 µM, first compound 10 µM) of the same compound?
**A.** 71.8%

**Q.** What about the viability, T/C [5] of the same compound?
**A.** 98.6%

**Q.** What about the viability, T/C [6] of the same compound?
**A.** 89.8%

**Q.** What about the viability, T/C [7] of the same compound?
**A.** 97.3%

**Q.** What about the viability, T/C [8] of the same compound?
**A.** 99.5%

**Q.** And the viability, T/C (second compound 0.1 µM, first compound 3.16 µM)?
**A.** 103%

**Q.** And the viability, T/C (second compound 0.1 µM, first compound 10 µM)?
**A.** 74.1%

**Q.** What about the viability, T/C [9] of the same compound?
**A.** 112%

**Q.** And the viability, T/C [10]?
**A.** 103%

**Q.** And the viability, T/C [11]?
**A.** 101%

**Q.** What about the viability, T/C [12] of the same compound?
**A.** 107%

**Q.** What about the viability, T/C (second compound 0.316 µM, first compound 3.16 µM) of the same compound?
**A.** 102%

**Q.** What about the viability, T/C (second compound 0.316 µM, first compound 10 µM) of the same compound?
**A.** 76%

**Q.** And the viability, T/C [13]?
**A.** 116%

**Q.** And the viability, T/C [14]?
**A.** 93.6%

**Q.** What about the viability, T/C [15] of the same compound?
**A.** 108%

**Q.** And the viability, T/C [16]?
**A.** 94.2%

**Q.** What about the viability, T/C (second compound 1 µM, first compound 3.16 µM) of the same compound?
**A.** 87.3%

**Q.** And the viability, T/C (second compound 1 µM, first compound 10 µM)?
**A.** 58%

**Q.** How did the IC50 (second compound 0.0316 µM) turn out when `O=C(c1ccc(F)c(F)c1Nc1ccc(I)cc1F)N1CC(O)([C@@H]2CCCCN2)C1` + C#Cc1c(F)ccc2cc(O)cc(-c3ncc4c(N5CC6CCC(C5)N6)nc(OCC56CCCN5CC(F)C6)nc4c3F)c12 was run?
**A.** 3.56 nM

**Q.** What about the IC50 (second compound 0.1 µM) of the same compound?
**A.** < 3.16 nM

**Q.** And the IC50 (second compound 0.316 µM)?
**A.** < 3.16 nM

**Q.** And the IC50 (second compound 1 µM)?
**A.** 3.69 nM

**Q.** And the IC50 (second compound 3.16 µM)?
**A.** 5.18 nM

**Q.** What about the IC50 (second compound 10 µM) of the same compound?
**A.** < 3.16 nM

**Q.** What about the viability, T/C (second compound 0.0316 µM, first compound 0.00316 µM) of the same compound?
**A.** 52.6%

**Q.** And the viability, T/C (second compound 0.0316 µM, first compound 0.01 µM)?
**A.** 35.3%

**Q.** What about the viability, T/C [1] of the same compound?
**A.** 26.1%

**Q.** What about the viability, T/C [2] of the same compound?
**A.** 26.5%

**Q.** What about the viability, T/C [3] of the same compound?
**A.** 17.6%

**Q.** And the viability, T/C [4]?
**A.** 14.2%

**Q.** And the viability, T/C (second compound 0.1 µM, first compound 0.00316 µM)?
**A.** 44%

**Q.** What about the viability, T/C (second compound 0.1 µM, first compound 0.01 µM) of the same compound?
**A.** 36.1%

**Q.** And the viability, T/C [5]?
**A.** 27.1%

**Q.** What about the viability, T/C [6] of the same compound?
**A.** 20.7%

**Q.** What about the viability, T/C [7] of the same compound?
**A.** 18.8%

**Q.** What about the viability, T/C [8] of the same compound?
**A.** 15.3%

**Q.** And the viability, T/C (second compound 0.316 µM, first compound 0.00316 µM)?
**A.** 50%

**Q.** And the viability, T/C (second compound 0.316 µM, first compound 0.01 µM)?
**A.** 37.8%

**Q.** And the viability, T/C [9]?
**A.** 29.6%

**Q.** What about the viability, T/C [10] of the same compound?
**A.** 24.8%

**Q.** What about the viability, T/C [11] of the same compound?
**A.** 16.7%

**Q.** And the viability, T/C [12]?
**A.** 14.5%

**Q.** And the viability, T/C (second compound 1 µM, first compound 0.00316 µM)?
**A.** 53.5%

**Q.** And the viability, T/C (second compound 1 µM, first compound 0.01 µM)?
**A.** 30%

**Q.** And the viability, T/C [13]?
**A.** 24.5%

**Q.** What about the viability, T/C [14] of the same compound?
**A.** 20.6%

**Q.** And the viability, T/C [15]?
**A.** 17.6%

**Q.** And the viability, T/C [16]?
**A.** 15.3%

**Q.** And the viability, T/C (second compound 3.16 µM, first compound 0.00316 µM)?
**A.** 59.7%

**Q.** What about the viability, T/C (second compound 3.16 µM, first compound 0.01 µM) of the same compound?
**A.** 36.2%

**Q.** What about the viability, T/C (second compound 3.16 µM, first compound 0.0316 µM) of the same compound?
**A.** 26.7%

**Q.** What about the viability, T/C (second compound 3.16 µM, first compound 0.1 µM) of the same compound?
**A.** 21.4%

**Q.** What about the viability, T/C (second compound 3.16 µM, first compound 0.316 µM) of the same compound?
**A.** 19.3%

**Q.** And the viability, T/C (second compound 3.16 µM, first compound 1 µM)?
**A.** 12.5%

**Q.** And the viability, T/C (second compound 10 µM, first compound 0.00316 µM)?
**A.** 17.5%

**Q.** What about the viability, T/C (second compound 10 µM, first compound 0.01 µM) of the same compound?
**A.** 14.3%

**Q.** And the viability, T/C (second compound 10 µM, first compound 0.0316 µM)?
**A.** 12.5%

**Q.** What about the viability, T/C (second compound 10 µM, first compound 0.1 µM) of the same compound?
**A.** 9.58%

**Q.** What about the viability, T/C (second compound 10 µM, first compound 0.316 µM) of the same compound?
**A.** 9.91%

**Q.** And the viability, T/C (second compound 10 µM, first compound 1 µM)?
**A.** 5.99%

— PubChem BioAssay AID2060882 (Molecular Pharmacology Branch, DTP, NCI, 2025)
